# From patent publication US8586571B2, “Heterocyclic compound” (Takeda Pharmaceutical Company Limited, priority 2007, dated 2013)
# Legend:
# human RBP4 = human RBP4 (Homo sapiens (Human), UniProt P02753); assay: Binding assay by Retinol-RBP4-TTR ELISA (human-type ELISA); conditions: inhibition of binding of RBP4 with retinol and TTR; retinol 0.5 μM; read-out: human RBP4 binding inhibitory activity (IC50 nM)
# Procedure: The action of the compound of the present invention to inhibit binding of RBP4 and retinol and TTR was evaluated using the Retinol-RBP4-TTR ELISA (human-type ELISA) system shown below.
# Binding Assay by Retinol-RBP4-TTR ELISA
# This ELISA system detects a complex of retinol, RBP4 and TTR by Streptoavidin-Biotin reaction.
# His-tagged human RBP4 used was prepared in the above-mentioned 1C.
# Biotinylate human TTR used was prepared in the above-mentioned 1E.
# Streptavidin (20 μl) (10 μg/ml Streptavidin type II (Wako Pure Chemical Industries, Ltd.), 10 mM Tris-HCl (pH 7.5), 10 mM NaCl) was added to a 384 well black maxisorp plate (Nunc), and the plate was subjected to centrifugation (1000 rpm, 1 min) and coated overnight at 4° C. The plate was washed twice with PBST (PBS, 0.05% Tween 20, 100 μl/well) and blocked with 25% Block Ace (Snow Brand Milk Products Co., Ltd., PBS, 100 μl/well). The plate was subjected to centrifugation (1000 rpm, 1 min) and incubated at room temperature for 4 hr or overnight at 4° C. The plate was washed twice with PEST (PBS, 0.05% Tween 20, 100 μl/well), and biotinylated human TTR (stock solution concentration 1.3 mg/ml) diluted 1000-fold with PBST was added at 20 μl/well. The plate was subjected to centrifugation (1000 rpm, 1 min) and stood still at room temperature for 1.5 hr or overnight at 4° C. The plate was washed 3 times with PBST (100 μl/well), and His-tagged human RBP4 (stock solution concentration 0.96 mg/ml) diluted 4000-fold with a reaction buffer (50 mM Tris-HCl, 150 mM NaCl, 0.005% Tween 20, 1 mM DTT, 0.1% BSA) was added at 10 μl/well. The dilution series (8 doses from 10 mM, 200-fold concentration) of the compound was prepared with DMSO, and 1 μl of each was added to a reaction buffer (200 μl) containing retinol (0.5 μM) (Sigma-Aldrich Co.). A reaction buffer (200 μl) containing retinol and added with DMSO was used as a positive control, and reaction buffer (200 μl) free of retinol and added with DMSO was used as a negative control. Mixed solutions of retinol and the compound were added to the plate at 15 μl/well. The mixture was stirred in a platemixer subjected to centrifugation (1000 rpm, 1 min) and reacted at room temperature for 2 hr. A 35% Block Ace solution diluted with the reaction buffer was added at 10 μl/well, centrifuged (1000 rpm, 1 min) and reacted at room temperature for 30 min. The plate was washed 3 times with PBST (100 μl/well) and SuperSignal ELISA Femto Maximum Sensitivity Substrate reagent (PIERCE) was added at 30 μl/well, and the luminescence was measured by a platereader (Wallac).
# The binding inhibitory rate of the compound was determined by 100×(test compound value-negative control value)/(positive control value-negative control value). The binding activity (IC50) was calculated from the binding inhibitory rate at each compound concentration using a graph drawing software, Prism (GraphPad Software Inc.).
# Zucker fa/fa rat = assay: Anti-diabetes action using Zucker fa/fa rat (Takeda Pharmaceutical Company Limited); assay type: in vivo; conditions: oral 30 mg/kg for 2 weeks
# Procedure: An anti-diabetes action and a blood triglyceride (hereinafter TG)-lowering action of the compound of the present invention were evaluated using Zucker fa/fa rats.
# Male 7-week-old Zucker fa/fa rats (Takeda Pharmaceutical Company Limited) were bred in group on CE-2 solid food (CLEA Japan, Inc.) until 7-week-old, thereafter bred on high-fat diet D06110702 (LSG Corporation) for acclimation under conditions with free access to food. At 11-week-old, the rats were grouped based on the body weight, blood glucose level, glycated hemoglobin level, blood RBP4 level and blood insulin level value (6 per group). Thereafter, the test compound (Example 143) was orally administered at a dose of 30 mg/kg (solvent: 0.5% methylcellulose solution (5 mL/kg)) for 2 weeks. The next day of the final administration of the compound, blood samples were collected from the tail vein, and plasma was separated. Using the collected plasma, (1) RBP4 concentration and (2) glycated hemoglobin level were measured. (1) was quantified according to the protocol described in Experimental Example 2. (2) was measured using Tosoh Corporation automatic glycohemoglobin analyzer (HLC-723 GHbV A1c2.2 or HLC-723G7 GHbV A1c2.2).
# A 0.5% methylcellulose solution (5 mL/kg) was orally administered to the control group. […] The results are shown in the is following in mean±standard deviation (n=6). In the following Table, glycated hemoglobin change is obtained by subtracting the value before administration from that after administration.
# RBP4 = RBP4 (Mus musculus (Mouse), UniProt Q00724); assay: Blood RBP4 lowering action in C57BL/6J mouse (plasma RBP4 by ELISA); assay type: in vivo; conditions: mean±SD (n=5); for RBP4 (% of initial/Control) 4 hr later: 4 hr after single oral 50 mg/kg; for RBP4 (% of initial/Control) 7 hr later: 7 hr after single oral 50 mg/kg; for RBP4 (% of initial/Control) 24 hr later: 24 hr after single oral 50 mg/kg
# Procedure: A blood RBP4 lowering action of the compound of the present invention was evaluated using C57BL/6J mouse.
# Male 7- to 15-week-old C57BL/6J mice (Charles River Laboratories Japan Inc.) were individually bred for acclimation for 4-6 days under conditions with free access to CE-2 solid food (CLEA Japan, Inc.), and grouped based on the body weight (5 per group). The next day of grouping, blood samples were collected from the orbital venous plexus, and plasma was separated (0 hr value). Thereafter, the test compounds (Examples 12, 143, 164, 189, 197, 207 and 215) were orally administered at a dose of 50 mg/kg (solvent: 0.5% methylcellulose solution (10 mL/kg)). At 4, 7 and 24 hr after administration of the compounds, blood samples were collected from the orbital venous plexus, and plasma was separated. A 0.5% methylcellulose solution (10 mL/kg) was orally administered to the control group.
# The RBP4 level of the collected plasma was measured by ELISA. RBP4 was quantified by the following steps using a rabbit anti-mouse RBP4 polyclonal antibody (Hokudo Co., Ltd). A 96 well ELISA plate was coated with 50 μg/mL of the antibody (100 μL) and stood at 4° C. overnight. After blocking with BlockAce (DAINIPPON PHARMACEUTICAL CO., LTD.), mouse RBP4 or a sample (100 μL) was added and the plate was stood at room temperature for 2 hr. After washing with PBS-0.5% Tween 20, HRP-labeled anti-RBP4 antibody (prepared by labeling RBP4 polyclonal antibody (Hokudo Co., Ltd) with HRP (DOJINDO LABORATORIES)) was added by 100 μL, and the plate was stood at room temperature for 1 hr. After washing, TMB (Dako Cytomations) was added, and the mixture was stood at room temperature for 20 min to allow color development, and the reaction was quenched with 2N sulfuric acid. Thereafter, the absorbance at A450 nm was measured on a platereader. The amount of change from the initial value of each animal was determined as a relative value from the control group (% of initial/Control) at each time point. The results are shown in the following in mean±standard deviation (n=5).
Compound,IC50 (human RBP4) [nM],RBP4 (% of initial/Control) 4 hr later (RBP4),RBP4 (% of initial/Control) 7 hr later (RBP4),RBP4 (% of initial/Control) 24 hr later (RBP4),also measured
"CC(C)(C)c1cc(F)ccc1OCC1CN(C(=O)CC(=O)O)C1 [Example 143, 3-{3-[(2-tert-butyl-4-fluorophenoxy)methyl]azetidin-1-yl}-3-oxopropanoic acid]",23,46.7 ± 6.6 % of initial/Control,36.2 ± 4.2 % of initial/Control,45.2 ± 9.1 % of initial/Control,"blood RBP4 concentration (result in words) (Zucker fa/fa rat; versus control): significant decrease; glycated hemoglobin (result in words) (Zucker fa/fa rat; versus control): significant decrease; RBP4 (Zucker fa/fa rat; plasma, high-fat diet, mean±SD (n=6)): 7.3 ± 1.2 µg/mL; glycated hemoglobin change(%) (Zucker fa/fa rat; value after minus before administration, mean±SD (n=6)): 0.6 ± 0.4%"
"CC(C)(C)c1cc(F)ccc1OC1CN(C(=O)c2ccccn2)C1 [Example 6, (3-(2-tert-butyl-4-fluorophenoxy)azetidin-1-yl)(pyridin-2-yl)methanone]",20,,,,
"CC(C)(C)c1cc(F)ccc1OC1CN(C(=O)CCC(=O)O)C1 [Example 80, 4-[3-(2-tert-butyl-4-fluorophenoxy)azetidin-1-yl]-4-oxobutanoic acid]",20,,,,
"CC(C)(C)c1ccccc1OC1CCN(C(=O)c2ccccn2)CC1 [Example 50, (4-(2-tert-butylphenoxy)piperidin-1-yl)(pyridin-2-yl)methanone]",5,,,,
"CC(C)(C)c1ccccc1SC1CN(C(=O)c2ccccn2)C1 [Example 17, (3-(2-tert-butylphenylthio)azetidin-1-yl)(pyridin-2-yl)methanone]",10,,,,
"CCCCCS(=O)(=O)NC(=O)C(=O)N1CCC(COc2ccccc2C(C)(C)C)CC1 [Example 121, 2-{4-[(2-tert-butylphenoxy)methyl]piperidin-1-yl}-2-oxo-N-(pentylsulfonyl)acetamide]",790,,,,
"CC(C)(C)c1ccccc1OC1CN(C(=O)C2(C(=O)O)CC2)C1 [Example 14, 1-(3-(2-tert-butylphenoxy)azetidine-1-carbonyl)cyclopropanecarboxylic acid]",24,,,,
"CC(C)(C)c1ccccc1S(=O)(=O)C1CN(C(=O)c2ccccc2)C1 [Example 20, (3-(2-tert-butylphenylsulfonyl)azetidin-1-yl)(phenyl)methanone]",290,,,,
"CC(C)(C)c1ccccc1OC1CN(C(=O)CC(=O)O)C1 [Example 10, 3-(3-(2-tert-butylphenoxy)azetidin-1-yl)-3-oxopropanoic acid]",36,,,,

# The next lines start with results.
IC50 (human RBP4) [nM],RBP4 (% of initial/Control) 4 hr later (RBP4),RBP4 (% of initial/Control) 7 hr later (RBP4),RBP4 (% of initial/Control) 24 hr later (RBP4),Compound,also measured
71,51.5 ± 1.7 % of initial/Control,42.1 ± 1.3 % of initial/Control,69.7 ± 9.6 % of initial/Control,"CC(C)(C)c1cc(Cl)ccc1OC1CN(C(=O)CCC(=O)O)C1 [Example 189, 4-[3-(2-tert-butyl-4-chlorophenoxy)azetidin-1-yl]-4-oxobutanoic acid]",
12,55.6 ± 1.0 % of initial/Control,49.0 ± 1.3 % of initial/Control,69.5 ± 6.6 % of initial/Control,"CC(C)(C)c1cc(Cl)ccc1OCC1CN(C(=O)C(=O)O)C1 [Example 207, {3-[(2-tert-butyl-4-chlorophenoxy)methyl]azetidin-1-yl}(oxo)acetic acid]",
34,64.3 ± 1.2 % of initial/Control,60.6 ± 0.6 % of initial/Control,64.7 ± 4.3 % of initial/Control,"CC(C)(C)c1cc(F)ccc1OCC1CCN(C(=O)CC(=O)O)C1 (stereo not drawn) [Example 215, 3-{3-[(2-tert-butyl-4-fluorophenoxy)methyl]pyrrolidin-1-yl}-3-oxopropanoic acid]",
40,39.2 ± 1.4 % of initial/Control,29.2 ± 1.0 % of initial/Control,40.4 ± 3.0 % of initial/Control,"CC(C)(C)c1ccccc1OCC1CCN(C(=O)CC(=O)O)C1 (stereo not drawn) [Example 197, 3-{3-[(2-tert-butylphenoxy)methyl]pyrrolidin-1-yl}-3-oxopropanoic acid]",
15,55.6 ± 6.3 % of initial/Control,46.4 ± 7.2 % of initial/Control,74.5 ± 8.9 % of initial/Control,"CC(C)(C)c1cc(Cl)ccc1OC1CN(C(=O)c2ccccn2)C1 [Example 164, 2-{[3-(2-tert-butyl-4-chlorophenoxy)azetidin-1-yl]carbonyl}pyridine]",
